Data as given in the NIST ThermoML archive (doi:10.1021/je2010837).
Numbers after ± are expanded uncertainties.

Conditions: 101.33 kPa, Liquid; for viscosity: Concentric cylinders viscometry; for electrical conductivity: Direct current cell with electrodes

## CCCC[n+]1ccn(C)c1.O=S(=O)([N-]S(=O)(=O)C(F)(F)F)C(F)(F)F
293.15 K
  mass density: 1439.27 ± 1.2 kg/m3
298.15 K
  mass density: 1434.3 ± 1.2 kg/m3
  viscosity: 50.05 ± 2.1 mPa·s
  electrical conductivity: 0.402 ± 0.0051 S/m
299.15 K
  electrical conductivity: 0.417 ± 0.0053 S/m
300.15 K
  electrical conductivity: 0.435 ± 0.0056 S/m
301.15 K
  electrical conductivity: 0.453 ± 0.0057 S/m
302.15 K
  electrical conductivity: 0.47 ± 0.0059 S/m
303.15 K
  mass density: 1429.4 ± 1.2 kg/m3
  viscosity: 41.24 ± 1.7 mPa·s
  electrical conductivity: 0.488 ± 0.0061 S/m
304.15 K
  electrical conductivity: 0.506 ± 0.0063 S/m
305.15 K
  electrical conductivity: 0.524 ± 0.0064 S/m
306.15 K
  electrical conductivity: 0.543 ± 0.0066 S/m
307.15 K
  electrical conductivity: 0.562 ± 0.0068 S/m
308.15 K
  mass density: 1424.57 ± 1.2 kg/m3
  viscosity: 33.65 ± 1.4 mPa·s
  electrical conductivity: 0.581 ± 0.007 S/m
309.15 K
  electrical conductivity: 0.602 ± 0.0073 S/m
310.15 K
  electrical conductivity: 0.622 ± 0.0075 S/m
311.15 K
  electrical conductivity: 0.643 ± 0.0077 S/m
312.15 K
  electrical conductivity: 0.664 ± 0.0078 S/m
313.15 K
  mass density: 1419.61 ± 1.2 kg/m3
  viscosity: 28.28 ± 1.2 mPa·s
  electrical conductivity: 0.684 ± 0.008 S/m
314.15 K
  electrical conductivity: 0.706 ± 0.0084 S/m
315.15 K
  electrical conductivity: 0.729 ± 0.0086 S/m
316.15 K
  electrical conductivity: 0.751 ± 0.0087 S/m
317.15 K
  electrical conductivity: 0.773 ± 0.0089 S/m
318.15 K
  mass density: 1414.67 ± 1.2 kg/m3
  viscosity: 23.91 ± 0.98 mPa·s
  electrical conductivity: 0.795 ± 0.0092 S/m
319.15 K
  electrical conductivity: 0.82 ± 0.0094 S/m
320.15 K
  electrical conductivity: 0.842 ± 0.0096 S/m
321.15 K
  electrical conductivity: 0.866 ± 0.0099 S/m
322.15 K
  electrical conductivity: 0.891 ± 0.011 S/m
323.15 K
  mass density: 1409.65 ± 1.2 kg/m3
  viscosity: 20.64 ± 0.84 mPa·s
  electrical conductivity: 0.921 ± 0.011 S/m
324.15 K
  electrical conductivity: 0.949 ± 0.011 S/m
325.15 K
  electrical conductivity: 0.983 ± 0.011 S/m
326.15 K
  electrical conductivity: 1.01 ± 0.012 S/m
327.15 K
  electrical conductivity: 1.04 ± 0.012 S/m
328.15 K
  mass density: 1404.64 ± 1.2 kg/m3
  viscosity: 17.9 ± 0.73 mPa·s
  electrical conductivity: 1.07 ± 0.013 S/m
329.15 K
  electrical conductivity: 1.1 ± 0.013 S/m
330.15 K
  electrical conductivity: 1.14 ± 0.013 S/m
331.15 K
  electrical conductivity: 1.17 ± 0.014 S/m
332.15 K
  electrical conductivity: 1.21 ± 0.014 S/m
333.15 K
  mass density: 1399.6 ± 1.1 kg/m3
  viscosity: 15.51 ± 0.63 mPa·s
  electrical conductivity: 1.24 ± 0.014 S/m
334.15 K
  electrical conductivity: 1.27 ± 0.014 S/m
335.15 K
  electrical conductivity: 1.31 ± 0.015 S/m
336.15 K
  electrical conductivity: 1.34 ± 0.015 S/m
337.15 K
  electrical conductivity: 1.38 ± 0.015 S/m
338.15 K
  mass density: 1394.43 ± 1.1 kg/m3
  viscosity: 13.71 ± 0.56 mPa·s
  electrical conductivity: 1.41 ± 0.016 S/m
339.15 K
  electrical conductivity: 1.45 ± 0.016 S/m
340.15 K
  electrical conductivity: 1.48 ± 0.017 S/m
341.15 K
  electrical conductivity: 1.52 ± 0.017 S/m
342.15 K
  electrical conductivity: 1.55 ± 0.017 S/m
343.15 K
  mass density: 1389.16 ± 1.1 kg/m3
  viscosity: 12.09 ± 0.49 mPa·s
  electrical conductivity: 1.59 ± 0.018 S/m
344.15 K
  electrical conductivity: 1.63 ± 0.018 S/m
345.15 K
  electrical conductivity: 1.67 ± 0.018 S/m
346.15 K
  electrical conductivity: 1.71 ± 0.019 S/m
347.15 K
  electrical conductivity: 1.74 ± 0.019 S/m
348.15 K
  mass density: 1383.85 ± 1.1 kg/m3
  viscosity: 10.78 ± 0.44 mPa·s
  electrical conductivity: 1.78 ± 0.019 S/m
349.15 K
  electrical conductivity: 1.82 ± 0.02 S/m
350.15 K
  electrical conductivity: 1.86 ± 0.02 S/m
351.15 K
  electrical conductivity: 1.9 ± 0.02 S/m
352.15 K
  electrical conductivity: 1.94 ± 0.021 S/m
353.15 K
  mass density: 1378.53 ± 1.1 kg/m3
  viscosity: 9.69 ± 0.39 mPa·s
  electrical conductivity: 1.98 ± 0.021 S/m

## CCCC[N+]1(C)CCCC1.O=S(=O)([N-]S(=O)(=O)C(F)(F)F)C(F)(F)F
293.15 K
  mass density: 1399 ± 1.1 kg/m3
298.15 K
  mass density: 1394.57 ± 1.1 kg/m3
  viscosity: 76.73 ± 3.2 mPa·s
  electrical conductivity: 0.277 ± 0.0036 S/m
299.15 K
  electrical conductivity: 0.288 ± 0.0037 S/m
300.15 K
  electrical conductivity: 0.3 ± 0.0039 S/m
301.15 K
  electrical conductivity: 0.313 ± 0.0041 S/m
302.15 K
  electrical conductivity: 0.327 ± 0.0042 S/m
303.15 K
  mass density: 1390.02 ± 1.1 kg/m3
  viscosity: 61.67 ± 2.6 mPa·s
  electrical conductivity: 0.34 ± 0.0044 S/m
304.15 K
  electrical conductivity: 0.354 ± 0.0045 S/m
305.15 K
  electrical conductivity: 0.368 ± 0.0047 S/m
306.15 K
  electrical conductivity: 0.383 ± 0.0048 S/m
307.15 K
  electrical conductivity: 0.398 ± 0.005 S/m
308.15 K
  mass density: 1385.48 ± 1.1 kg/m3
  viscosity: 50.49 ± 2.1 mPa·s
  electrical conductivity: 0.412 ± 0.0051 S/m
309.15 K
  electrical conductivity: 0.427 ± 0.0052 S/m
310.15 K
  electrical conductivity: 0.443 ± 0.0054 S/m
311.15 K
  electrical conductivity: 0.459 ± 0.0056 S/m
312.15 K
  electrical conductivity: 0.475 ± 0.0058 S/m
313.15 K
  mass density: 1380.93 ± 1.1 kg/m3
  viscosity: 41.73 ± 1.7 mPa·s
  electrical conductivity: 0.492 ± 0.006 S/m
314.15 K
  electrical conductivity: 0.509 ± 0.0062 S/m
315.15 K
  electrical conductivity: 0.527 ± 0.0063 S/m
316.15 K
  electrical conductivity: 0.544 ± 0.0065 S/m
317.15 K
  electrical conductivity: 0.562 ± 0.0067 S/m
318.15 K
  mass density: 1376.28 ± 1.1 kg/m3
  viscosity: 34.67 ± 1.4 mPa·s
  electrical conductivity: 0.58 ± 0.0068 S/m
319.15 K
  electrical conductivity: 0.598 ± 0.007 S/m
320.15 K
  electrical conductivity: 0.616 ± 0.0072 S/m
321.15 K
  electrical conductivity: 0.635 ± 0.0075 S/m
322.15 K
  electrical conductivity: 0.655 ± 0.0076 S/m
323.15 K
  mass density: 1371.64 ± 1.1 kg/m3
  viscosity: 29.48 ± 1.2 mPa·s
  electrical conductivity: 0.673 ± 0.0078 S/m
324.15 K
  electrical conductivity: 0.694 ± 0.008 S/m
325.15 K
  electrical conductivity: 0.713 ± 0.0081 S/m
326.15 K
  electrical conductivity: 0.733 ± 0.0084 S/m
327.15 K
  electrical conductivity: 0.754 ± 0.0086 S/m
328.15 K
  mass density: 1366.9 ± 1.1 kg/m3
  viscosity: 25.43 ± 1 mPa·s
  electrical conductivity: 0.775 ± 0.0088 S/m
329.15 K
  electrical conductivity: 0.795 ± 0.009 S/m
330.15 K
  electrical conductivity: 0.816 ± 0.0093 S/m
331.15 K
  electrical conductivity: 0.839 ± 0.0094 S/m
332.15 K
  electrical conductivity: 0.86 ± 0.0097 S/m
333.15 K
  mass density: 1362.2 ± 1.1 kg/m3
  viscosity: 21.9 ± 0.89 mPa·s
  electrical conductivity: 0.884 ± 0.01 S/m
334.15 K
  electrical conductivity: 0.911 ± 0.011 S/m
335.15 K
  electrical conductivity: 0.938 ± 0.011 S/m
336.15 K
  electrical conductivity: 0.965 ± 0.011 S/m
337.15 K
  electrical conductivity: 0.993 ± 0.011 S/m
338.15 K
  mass density: 1357.35 ± 1.1 kg/m3
  viscosity: 19.16 ± 0.78 mPa·s
  electrical conductivity: 1.02 ± 0.012 S/m
339.15 K
  electrical conductivity: 1.05 ± 0.012 S/m
340.15 K
  electrical conductivity: 1.08 ± 0.012 S/m
341.15 K
  electrical conductivity: 1.11 ± 0.012 S/m
342.15 K
  electrical conductivity: 1.13 ± 0.013 S/m
343.15 K
  mass density: 1352.44 ± 1.1 kg/m3
  viscosity: 16.82 ± 0.69 mPa·s
  electrical conductivity: 1.17 ± 0.013 S/m
344.15 K
  electrical conductivity: 1.2 ± 0.013 S/m
345.15 K
  electrical conductivity: 1.23 ± 0.014 S/m
346.15 K
  electrical conductivity: 1.26 ± 0.014 S/m
347.15 K
  electrical conductivity: 1.29 ± 0.014 S/m
348.15 K
  mass density: 1347.48 ± 1 kg/m3
  viscosity: 14.8 ± 0.6 mPa·s
  electrical conductivity: 1.32 ± 0.015 S/m
349.15 K
  electrical conductivity: 1.36 ± 0.015 S/m
350.15 K
  electrical conductivity: 1.4 ± 0.016 S/m
351.15 K
  electrical conductivity: 1.43 ± 0.016 S/m
352.15 K
  electrical conductivity: 1.46 ± 0.016 S/m
353.15 K
  mass density: 1342.48 ± 1 kg/m3
  viscosity: 13.24 ± 0.54 mPa·s
  electrical conductivity: 1.49 ± 0.016 S/m
